Experimental data as given in US11291655B2, “RAD51 inhibitors” (Cyteir Therapeutics, Inc., priority 2017, dated 2022).

The compounds below were run on Daudi Cell Culture (assay: Compound primary screening in Daudi cell culture). Details: Daudi cells, 1250 cells per well, reads on Day 7.
Type: cell-based
Protocol: Compound Primary Screening
1. Materials and Supplies
Plastic ware and consumables needed for this experiment include: Cell Culture media; Evaporation Buffer media; 100% DMSO; 96 well U-bottom sterile culture plates; 250 mL bottle; 1.5 mL Opaque amber epi tubes; Epi Tube rack; 300 mL reservoirs; 25 mL reservoir; 25 mL serological pipette tips; 5 mL serological pipette tips P1000 Pipette Tips; and P200 Pipette Tips.
Equipment needed for this experiment include: Viaflo 384 liquid handler; Eppendorf serological pipette; Eppendorf P1000 Pipette; and Eppendorf P200 Pipette
Daudi Cell Culture is also needed for this experiment.
Lastly, compounds (e.g., the compounds of this invention) to be tested are needed.
All steps were performed in a sterile environment inside the Biosafety cabinet.
A 96 well u-bottom plate was prepared by writing the experiment number, plate number, date and initials in the top right corner of the plate lid. With a sterile 300 ml reservoir, and 25 ml serological pipette, evaporation buffer media was pipetted into reservoir in 25 ml increments. Using the liquid handler, 150 ul of evaporation buffer media was pipetted from reservoir into rows A and H, and Columns 1 and 12 of the 96 well u-bottom plate. Cell cultures were counted to obtain the density of cells per ml, and the culture viability. The cell density information was used to obtain 1,000,000 cells from culture using a 5 mL serological pipette into an epi tube. The cell density information from the culture was used to calculate the number of cells and volume of media needed for the assay to seed 1250 cells in 130 ul of media per available culture well in the 96 well u-bottom plate. Rows B through F were used for cells (50 wells in total), with row G left for an empty media control. The calculation was overestimated by 10 mL to account for the dead volume in the 300 ml reservoir. Once the media volume was calculated, the appropriate volume of media was pipetted in 25 mL increments into the 250 mL bottle using a 25 mL serological pipette. The 250 ml bottle was capped tightly, and placed into a 37° C. water bath for 2 minutes. While the culture media was warming, 10 mL of fresh media was pipetted from the 500 mL culture media bottle into a sterile 25 mL reservoir. Using the Eppendorf multichannel pipette, 130 ul of media was pipetted from the 25 mL reservoir into row G of the 96 well u-bottom plate. Once the 250 mL bottle of media was warmed, the volume of culture needed was pipetted into the bottle, and mixed gently with a 25 mL serological pipette as to not create bubbles, and then the contents of the bottle were pipetted into a new 300 mL reservoir. Using the liquid handler, 130 ul of culture was pipetted from the 300 mL reservoir into rows B through F of the 96 well u-bottom plate. Once the culture was added, the plate was placed into a 37° C. incubator until the compound master plate was prepared for use.
Two 96 well u-bottom plates were prepared by writing the master plate name in the upper right corner of the plate lid. Labeling one DMSO master and the other Media Master. The compounds of interest were obtained from the laboratory freezer, and placed into a 25 well storage box with a lid, and set the box aside. The compounds were vortexed after thawing but before use. Using an automatic multichannel pipette, 20 ul of 100% DMSO was pipetted into wells B3-B11 through G3-G11 of the DMSO master plate. For each compound on the master plate, 50 ul of the compound were pipetted in the appropriate well of row 2 (reference plate map to determine appropriate well). A serial dilution was prepared beginning by aspirating 20 ul from row 2 and mixing with row 3, repeating until row 11 was reached. Using the liquid handler, 194 ul of Daudi media was dispensed into wells B2-B11 through G2-G11 of the Media master plate. Using the liquid handler, 6 ul from the DMSO master plate was aspirated and dispensed into the media master plate, mixing 100 ul twice. […]

Row | Compound | EC50 (μM)
1 | Cc1cc(-c2ncc(-c3ccc(N4CCCC4=O)cc3S(=O)(=O)NC(C)(C)C)s2)ccc1NC(=O)OC(C)C [Compound J17] | FAIL

Same assay, conditions: Homo sapiens, 168 h; Daudi cells, 1250 cells per well, reads on Day 7

Row | Compound | EC50 [µM]
2 | CC(C)OC(=O)Nc1ccc(-c2ncc(-c3ccc(NC(C)C(F)(F)F)cc3S(=O)(=O)NC(C)(C)C)s2)cc1 (stereo not shown) [Compound J3, isopropyl N-[4-[5-[2-(tert-butylsulfamoyl)-4-[(2,2,2-trifluoro-1-methyl-ethyl)amino]phenyl]thiazol-2-yl]phenyl]carbamate] | < 5
3 | CC(C)OC(=O)Nc1ccc(-c2ncc(-c3ccc(N4CCCC4=O)cc3S(=O)(=O)NC(C)(C)C)s2)cc1 [Compound J4] | < 5
4 | CC(=O)Nc1ccc(-c2cnc(-c3ccc(NC(=O)OC(C)C)nc3)s2)c(S(=O)(=O)NC(C)(C)C)c1 [Compound J5] | < 1
5 | CC(C)OC(=O)Nc1ccc(-c2ncc(-c3ccc(C(F)(F)F)cc3S(=O)(=O)NC(C)(C)C)s2)cc1 [Compound J6] | < 10
6 | CC(C)NC(=O)Nc1ccc(-c2ncc(-c3ccc(N4CCCC4=O)cc3S(=O)(=O)NC(C)(C)C)s2)cc1 [Compound J7] | < 10
7 | CC(C)OC(=O)N(C)c1ccc(-c2ncc(-c3ccc(N4CCCC4=O)cc3S(=O)(=O)NC(C)(C)C)s2)cc1 [Compound J8, isopropyl N-[4-[5-[2-(tert-butylsulfamoyl)-4-(2-oxopyrrolidin-1-yl)phenyl]thiazol-2-yl]phenyl]-N-methyl-carbamate] | < 10
8 | CC(C)OC(=O)Nc1ccc(-c2ncc(-c3ccc(N4CCCC4=O)cc3S(=O)(=O)NC(C)(C)C)s2)cc1F [Compound J9, isopropyl N-[4-[5-[2-(tert-butylsulfamoyl)-4-(2-oxopyrrolidin-1-yl)phenyl]thiazol-2-yl]-2-fluoro-phenyl]carbamate] | < 5
9 | CC(=O)Nc1ccc(-c2cnc(-c3ccc(NCC(C)O)cc3)s2)c(S(=O)(=O)NC(C)(C)C)c1 (stereo not shown) [Compound J11] | > 10
10 | CC(=O)Nc1ccc(-c2cnc(-c3ccc(NCC(C)(C)O)cc3)s2)c(S(=O)(=O)NC(C)(C)C)c1 [Compound J12, N-[3-(tert-butylsulfamoyl)-4-[2-[4-[(2-hydroxy-2-methyl-propyl)amino]phenyl]thiazol-5-yl]phenyl]acetamide] | > 10
11 | CC(=O)Nc1ccc(-c2cnc(-c3ccc(N4CC(C)(C)OC4=O)cc3)s2)c(S(=O)(=O)NC(C)(C)C)c1 [Compound J13] | > 10
12 | CC(=O)Nc1ccc(-c2cnc(-c3cccc(NC(=O)OC(C)C)c3)s2)c(S(=O)(=O)NC(C)(C)C)c1 [Compound J14] | < 10
13 | CC(C)NC(=O)Nc1ccc(-c2ncc(-c3ccc(NS(C)(=O)=O)cc3S(=O)(=O)NC(C)(C)C)s2)cc1 [Compound J15] | > 10
14 | COc1cc(-c2ncc(-c3ccc(N4CCCC4=O)cc3S(=O)(=O)NC(C)(C)C)s2)ccc1NC(=O)OC(C)C [Compound J16] | < 10
15 | CC(C)OC(=O)Nc1ccc(-c2ncc(-c3ccc(N(C)S(C)(=O)=O)cc3S(=O)(=O)NC(C)(C)C)s2)cc1 [Compound J18] | < 5
16 | CC(=O)Nc1ccc(-c2cnc(-c3ccc(N4CCOC4=O)cc3)s2)c(S(=O)(=O)NC(C)(C)C)c1 [Compound J19, N-[3-(tert-butylsulfamoyl)-4-[2-[4-(2-oxooxazolidin-3-yl)phenyl]thiazol-5-yl]phenyl]acetamide] | > 10
17 | CC(C)OC(=O)Nc1ccc(-c2ncc(-c3ccc(N4CCN(Cc5ccccc5)C4=O)cc3S(=O)(=O)NC(C)(C)C)s2)cc1 [Compound J21] | > 10
18 | CC(C)NC(=S)Nc1ccc(-c2ncc(-c3ccc(N4CCN(Cc5ccccc5)C4=O)cc3S(=O)(=O)NC(C)(C)C)s2)cc1 [Compound J22] | > 10
19 | CC(C)OC(=O)Nc1ccc(-c2ncc(-c3ccc(N4CCOC4=O)cc3S(=O)(=O)NC(C)(C)C)s2)cc1 [Compound J23, isopropyl N-[4-[5-[2-(tert-butylsulfamoyl)-4-(2-oxooxazolidin-3-yl)phenyl]thiazol-2-yl]phenyl]carbamate] | < 5

Row | Compound | EC50 [µM]
20 | CC(C)OC(=O)Nc1ccc(-c2ncc(-c3ccc(N4CCCOC4=O)cc3S(=O)(=O)NC(C)(C)C)s2)cc1 [Compound J24, isopropyl N-[4-[5-[2-(tert-butylsulfamoyl)-4-(2-oxo-1,3-oxazinan-3-yl)phenyl]thiazol-2-yl]phenyl]carbamate] | < 5
21 | CC(O)CNc1ccc(-c2cnc(-c3ccc(NC(=O)OC(C)C)cc3)s2)c(S(=O)(=O)NC(C)(C)C)c1 (stereo not shown) [Compound J25, isopropyl N-[4-[5-[2-(tert-butylsulfamoyl)-4-(2-hydroxypropylamino)phenyl]thiazol-2-yl]phenyl]carbamate] | < 5
22 | CC(C)OC(=O)Nc1ccc(-c2ncc(-c3ccc(N4CC(C)OC4=O)cc3S(=O)(=O)NC(C)(C)C)s2)cc1 (stereo not shown) [Compound J26, isopropyl (4-(5-(2-(N-(tert-butyl)sulfamoyl)-4-(5-methyl-2-oxooxazolidin-3-yl)phenyl)thiazol-2-yl)phenyl)carbamate] | < 10
23 | CC(C)OC(=O)Nc1ccc(-c2ncc(-c3ccc(N4CC(Cc5ccccc5)OC4=O)cc3S(=O)(=O)NC(C)(C)C)s2)cc1 (stereo not shown) [Compound J27, isopropyl (4-(5-(4-(5-benzyl-2-oxooxazolidin-3-yl)-2-(N-(tert-butyl)sulfamoyl)phenyl)thiazol-2-yl)phenyl)carbamate] | > 10
24 | CC(C)OC(=O)Nc1ccc(-c2ncc(-c3ccc(N4CCC(Cc5ccccc5)C4=O)cc3S(=O)(=O)NC(C)(C)C)s2)cc1 (stereo not shown) [Compound J28, isopropyl (4-(5-(4-(3-benzyl-2-oxopyrrolidin-1-yl)-2-(N-(tert-butyl)sulfamoyl)phenyl)thiazol-2-yl)phenyl)carbamate] | > 10
25 | CC(C)OC(=O)Nc1ccc(-c2ncc(-c3ccc(N4CC(c5ccccc5)OC4=O)cc3S(=O)(=O)NC(C)(C)C)s2)cc1 (stereo not shown) [Compound J29, isopropyl N-[4-[5-[2-(tert-butylsulfamoyl)-4-(2-oxo-5-phenyl-oxazolidin-3-yl)-phenyl]thiazol-2-yl]phenyl]carbamate] | > 10
26 | CC(C)OC(=O)Nc1ccc(-c2ncc(-c3ccc(C(=O)NCc4ccccc4)cc3S(=O)(=O)NC(C)(C)C)s2)cc1 [Compound K1] | > 10
27 | CC(C)OC(=O)Nc1ccc(-c2ncc(-c3cc(NC(=O)OCc4ccccc4)ccc3S(=O)(=O)NC(C)(C)C)s2)cc1 [Compound K2] | > 10
28 | CC(C)NC(=S)Nc1ccc(-c2ncc(-c3ccc(NC(=O)OCc4ccccc4)cc3S(=O)(=O)NC(C)(C)C)s2)cc1 [Compound L4] | > 10
29 | CCOC(=O)Nc1ccc(-c2cnc(-c3ccc(NC(=S)NC(C)C)cc3)s2)c(S(=O)(=O)NC(C)(C)C)c1 [Compound L5] | < 5
30 | CC(C)NC(=S)Nc1ccc(-c2ncc(-c3ccc(NC(=O)c4ccccc4)cc3S(=O)(=O)NC(C)(C)C)s2)cc1 [Compound L6] | < 5
31 | COC(=O)Nc1ccc(-c2cnc(-c3ccc(NC(=S)NC(C)C)cc3)s2)c(S(=O)(=O)NC(C)(C)C)c1 [Compound L7] | > 10
32 | CC(C)OC(=O)Nc1ccc(-c2ncc(-c3ccc(NC(=S)NCc4ccccc4)cc3S(=O)(=O)NC(C)(C)C)s2)cc1 [Compound L8] | < 1
33 | CC(=O)Nc1ccc(-c2cnc(-c3ccc(NC(=S)NCc4ccccc4)cc3)s2)c(S(=O)(=O)NC(C)(C)C)c1 [Compound L9] | < 5
34 | CC(C)NC(=S)Nc1ccc(-c2ncc(-c3ccc(NC(=O)NCc4ccccc4)cc3S(=O)(=O)NC(C)(C)C)s2)cc1 [Compound L10] | < 5
35 | CC(C)NC(=S)Nc1ccc(-c2ncc(-c3ccc(NC(=O)N(C)Cc4ccccc4)cc3S(=O)(=O)NC(C)(C)C)s2)cc1 [Compound M1] | > 10
36 | CC(C)NC(=S)Nc1ccc(-c2ncc(-c3ccc(NC(=O)NCc4ccncc4)cc3S(=O)(=O)NC(C)(C)C)s2)cc1 [Compound M2] | < 5
37 | CC(C)NC(=S)Nc1ccc(-c2ncc(-c3ccc(NC(=O)NCc4cccnc4)cc3S(=O)(=O)NC(C)(C)C)s2)cc1 [Compound M3] | < 10
